Patent EP4806891A1 (Kangbaida (Sichuan) Biotechnology Co., Ltd., priority 2023, dated 2025)

Key:
HEK-Blue-hTLR7 cells = target: T1, HEK-Blue-hTLR7 cells (Homo sapiens, UniProt Q9NYK1); assay: HEK-Blue-hTLR7 cell inhibition assay; assay type: cell-based; conditions: R848 0.8 µM, 16 h, OD 620 nm, read-out: TLR7 IC50
T1 construct: expressed in transfected cells; host or cells: HEK-Blue-hTLR7 cells (HEK293-derived reporter line)
T1 sequence (Q9NYK1 27-1049): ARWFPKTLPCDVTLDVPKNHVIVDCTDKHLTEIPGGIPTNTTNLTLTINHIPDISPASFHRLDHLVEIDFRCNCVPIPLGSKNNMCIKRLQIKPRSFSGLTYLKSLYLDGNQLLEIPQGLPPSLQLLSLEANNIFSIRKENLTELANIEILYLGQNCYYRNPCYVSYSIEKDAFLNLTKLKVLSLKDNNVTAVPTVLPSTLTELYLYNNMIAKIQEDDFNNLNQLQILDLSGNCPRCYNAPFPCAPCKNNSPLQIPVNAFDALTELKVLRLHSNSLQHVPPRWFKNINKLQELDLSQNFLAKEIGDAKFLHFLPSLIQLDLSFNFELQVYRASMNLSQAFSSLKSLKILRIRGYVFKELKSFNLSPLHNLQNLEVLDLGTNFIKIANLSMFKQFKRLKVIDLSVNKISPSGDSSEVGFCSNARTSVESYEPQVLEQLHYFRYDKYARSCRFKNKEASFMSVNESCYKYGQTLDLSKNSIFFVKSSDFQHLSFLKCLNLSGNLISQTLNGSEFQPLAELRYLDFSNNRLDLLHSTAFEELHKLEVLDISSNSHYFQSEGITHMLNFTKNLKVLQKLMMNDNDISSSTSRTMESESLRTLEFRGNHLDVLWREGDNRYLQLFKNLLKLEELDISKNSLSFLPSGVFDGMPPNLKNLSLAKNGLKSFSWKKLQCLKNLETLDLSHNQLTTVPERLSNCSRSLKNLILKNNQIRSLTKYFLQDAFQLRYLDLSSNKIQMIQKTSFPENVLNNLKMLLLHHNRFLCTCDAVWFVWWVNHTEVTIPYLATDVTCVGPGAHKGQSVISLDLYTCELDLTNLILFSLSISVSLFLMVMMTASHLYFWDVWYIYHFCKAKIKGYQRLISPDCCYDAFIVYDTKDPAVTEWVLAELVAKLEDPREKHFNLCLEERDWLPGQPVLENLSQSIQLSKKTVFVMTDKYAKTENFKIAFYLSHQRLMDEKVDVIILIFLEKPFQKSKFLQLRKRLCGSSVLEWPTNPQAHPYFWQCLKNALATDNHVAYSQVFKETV
Description: (§1) HEK-Blue-hTLR7/8/9 cell inhibition assay
(§2) 1. HEK-Blue-hTLR7/8 cells (1 × 10^4 cells/well) and HEK-Blue-hTLR9 cells (1.5 × 10^4 cells/well) were seeded in a 384-well cell culture plate, with a volume of 30 µL per well. The plate was incubated at 37°C in a 5% CO2 incubator for 4 h. 2. The compound was prepared with DMSO and diluted in DMEM medium to 10 concentrations (1:3 dilution), with final concentrations of 10000, 3333.3, 1111.1, 370.4, 123.5, 41.2, 13.7, 4.6, 1.5, and 0.5 nM; R848 was prepared with DMSO and diluted in DMEM medium, with final concentrations of 0.8 µM (HEK-Blue-hTLR7) and 3 µM (HEK-Blue-hTLR8); ODN2006 was prepared with endotoxin-free water and diluted in DMEM medium, with a final concentration of 1 µM. 3. Cells treated with DMSO were used as the blank control group, while cells treated solely with Resiquimod (R848) were used as the positive control group for HEK-Blue-hTLR7/8, and cells treated solely with ODN2006 were used as the positive control group for HEK-Blue-hTLR9. Cells treated with the test compound together with R848 or ODN2006 were used as the test group. Two parallel wells were set for each group and were placed at 37°C in a 5% CO2 incubator for incubation. 4. After being incubated for 4 h, the 384-well plate of HEK-Blue-hTLR7/8 was taken out from the incubator, and R848 alone or both R848 and the diluted compound were separately added into each well. The plate was placed at 37°C in a 5% CO2 incubator for incubation for 16 h; the 384-well plate of HEK-Blue-hTLR9 was taken out from the incubator, and ODN2006 alone or both ODN2006 and the diluted compound were added separately to each well. The plate was incubated at 37°C in a 5% CO2 incubator for 16 h. 5. After being incubated for 16 h, the 384-well plate was removed from the incubator and centrifuged at 1000 rpm for 1 minute. The optical density value of each well at 620 nm was measured using a multifunctional microplate reader. 6. The cell inhibition rate was calculated as (1-(OD620 test group-OD620 blank group)/(OD620 positive group-OD620 blank group))×100%, and the half maximal inhibitory concentration (IC50) was calculated through curve fitting. Table 1: Activity of the compounds of the present disclosure in HEK-Blue-hTLR7/8/9 cellular assays

HEK-Blue-hTLR8 cells = target: T2, HEK-Blue-hTLR8 cells (Homo sapiens, UniProt Q9NR97); assay: HEK-Blue-hTLR8 cell inhibition assay; assay type: cell-based; conditions: R848 3 µM, 16 h, OD 620 nm, read-out: TLR8 IC50
T2 construct: expressed in transfected cells; host or cells: HEK-Blue-hTLR8 cells (HEK293-derived reporter line)
T2 sequence (Q9NR97 27-1041): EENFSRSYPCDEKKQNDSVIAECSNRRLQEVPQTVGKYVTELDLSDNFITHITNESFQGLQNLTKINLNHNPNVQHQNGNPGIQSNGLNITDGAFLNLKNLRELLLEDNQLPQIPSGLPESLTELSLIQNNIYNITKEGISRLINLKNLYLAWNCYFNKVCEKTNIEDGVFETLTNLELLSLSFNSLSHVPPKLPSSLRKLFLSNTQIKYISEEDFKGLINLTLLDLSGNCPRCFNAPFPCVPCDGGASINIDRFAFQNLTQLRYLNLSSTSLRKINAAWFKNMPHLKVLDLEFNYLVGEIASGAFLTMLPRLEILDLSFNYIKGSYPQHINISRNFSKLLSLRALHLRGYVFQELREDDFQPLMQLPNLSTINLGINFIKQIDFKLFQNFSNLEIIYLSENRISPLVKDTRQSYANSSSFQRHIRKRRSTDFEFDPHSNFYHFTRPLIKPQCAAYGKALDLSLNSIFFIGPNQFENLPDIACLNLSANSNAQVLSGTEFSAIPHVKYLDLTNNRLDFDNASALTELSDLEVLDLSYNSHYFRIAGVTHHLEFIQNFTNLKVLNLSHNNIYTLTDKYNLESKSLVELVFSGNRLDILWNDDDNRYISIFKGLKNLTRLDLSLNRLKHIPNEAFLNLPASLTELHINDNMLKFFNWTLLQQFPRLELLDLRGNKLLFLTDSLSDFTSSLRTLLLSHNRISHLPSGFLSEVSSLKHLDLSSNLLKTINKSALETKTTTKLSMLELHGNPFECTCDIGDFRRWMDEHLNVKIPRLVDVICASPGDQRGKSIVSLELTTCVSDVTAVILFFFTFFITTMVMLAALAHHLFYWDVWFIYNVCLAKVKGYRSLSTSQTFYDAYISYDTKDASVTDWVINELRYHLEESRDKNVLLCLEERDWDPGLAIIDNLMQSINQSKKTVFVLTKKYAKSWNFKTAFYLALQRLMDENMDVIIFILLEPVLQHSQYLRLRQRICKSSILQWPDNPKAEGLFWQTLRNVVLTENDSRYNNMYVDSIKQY
Description: as §1, §2

Row | IC50 (HEK-Blue-hTLR7 cells) [µM] | IC50 (HEK-Blue-hTLR8 cells) [µM] | SMILES
1 | < 0.1 | < 0.1 | CN1CCC(Oc2nnc([C@]34CN(c5ccc(C#N)n6nccc56)C[C@@]3(C(F)(F)F)C4)o2)CC1 [Compound 89, 4-((1S,5R)-1-(5-((1-methylpiperidin-4-yl)oxy)-1,3,4-oxadiazol-2-yl)-5-(trifluoromethyl)-3-azabicyclo[3.1.0]hexan-3-yl)pyrazolo[1,5-a]pyridine-7-carbonitrile]
2 | > 1 | > 10 | CCc1nc2c(C#N)ccc(N3C[C@]4(c5nnc(C6CCN(C)CC6)o5)C[C@]4(C(F)(F)F)C3)c2nc1CC [Compound 70, 2,3-diethyl-8-((1S,5R)-1-(5-(1-methylpiperidin-4-yl)-1,3,4-oxadiazol-2-yl)-5-(trifluoromethyl)-3-azabicyclo[3.1.0]hexan-3-yl)quinoxaline-5-carbonitrile]
3 | < 0.1 | < 0.1 | CN1CCN(c2nnc([C@]34CN(c5ccc(C#N)n6ncc(F)c56)C[C@@]3(C(F)(F)F)C4)o2)CC1 [Compound 63, 3-fluoro-4-((1S,5R)-1-(5-(4-methylpiperazin-1-yl)-1,3,4-oxadiazol-2-yl)-5-(trifluoromethyl)-3-azabicyclo[3.1.0]hexan-3-yl)pyrazolo[1,5-a]pyridine-7-carbonitrile]
4 | > 1 | > 1 | CN1CCC(c2nnc([C@]34CN(c5ccc(C#N)c6nc(Cl)ccc56)C[C@@]3(C(F)(F)F)C4)o2)CC1 [Compound 58, 2-chloro-5-((1S,5R)-1-(5-(1-methylpiperidin-4-yl)-1,3,4-oxadiazol-2-yl)-5-(trifluoromethyl)-3-azabicyclo[3.1.0]hexan-3-yl)quinoline-8-carbonitrile]

Row | SMILES | IC50 (HEK-Blue-hTLR7 cells) [µM] | IC50 (HEK-Blue-hTLR8 cells) [µM]
5 | CN1[C@@H]2CC[C@H]1C[C@@H](c1nnc([C@]34CN(c5ccc(C(F)(F)F)c6ncccc56)C[C@@]3(C(F)(F)F)C4)o1)C2 [Compound 78, 2-((1R,3R,5S)-8-methyl-8-azabicyclo[3.2.1]octan-3-yl)-5-((1S,5R)-5-(trifluoromethyl)-3-(8-(trifluoromethyl)quinolin-5-yl)-3-azabicyclo[3.1.0]hexan-1-yl)-1,3,4-oxadiazole] | < 0.1 | < 0.1
